# In patent publication US11484529B2, “Desmethylanethole trithione derivatives for the treatment of diseases linked to mitochondrial reactive oxygen species (ROS) production” (OP2 Drugs, priority 2017, dated 2022):
# Entries after “also recorded” stand apart in the source; their conditions may differ.
# Legend:
# [1] = tested on: isolated mitochondria from rat heart; assay: Mitochondrial respiration / oxidative phosphorylation (oxygraph); type: biochemical
# Description: Male Wistar rats (250-325 g; obtained from Janvier Labs, Le Genest-Saint-Isle, France) were killed by stunning and cervical dislocation, and the heart was quickly removed and washed in cold isolation medium containing 100 mM sucrose, 180 mM KCl, 50 mM Tris, 5 mM MgCl2, 10 mM EDTA, and 0.1% (w/v) defatted BSA (pH 7.2).
# Isolation of heart mitochondria was performed in a cold chamber. Before homogenization, hearts (about 1.5 g) were minced with scissors and treated for 5 minutes in 5 mL of the same medium supplemented with protease (2 mg of bacterial proteinase type XXIV per mL of isolation buffer) with stirring. The tissue suspension was poured into a 50-mL glass Potter homogenizer, diluted with 20 mL of isolation buffer, then homogenized for 3 minutes using a motorized Teflon pestle. The homogenate was filtered through bolting cloth (Sefar Nitex) to remove debris, and centrifuged at 8,000 g for 10 minutes. The resulting pellet was rinsed with 5 mL of isolation buffer, resuspended in 25 mL of the same buffer, then subjected to low speed centrifugation (400 g) for 8 minutes. […] Protein concentration was determined by the Bradford method (Sigma, kit #B6916) using BSA as standard. […]
# (§1) Oxygen consumption rates of heart mitochondria (0.1 mg/mL), incubated in the absence or presence of AOL at increasing doses (from 0 to 80 μM final concentration), were recorded polarographically under constant stirring at 25° C. using a high-resolution oximeter (Oxygraph-2K, Oroboros Instruments, Austria). […]
# Isolation of heart mitochondria was performed in a cold chamber. […] Protein concentration was determined by the Bradford method (Sigma, kit # B6916) using BSA as standard. […]
# as §1, with “AOX” for “AOL”, “100” for “80”
# [2] = tested on: chronic hypoxic rats and monocrotaline-treated rats; assay: Pulmonary hypertension rat models (chronic hypoxia, monocrotaline); type: in vivo
# Description: Male Wistar rats (300-400 g) were separated into 3 groups and used 4 weeks later: • the first group (control or normoxic rats—N rats) was housed in ambient room air; • the second group (chronic hypoxic rats—CH rats) was exposed to chronic hypoxia for 3 weeks in a hypobaric chamber (50 kPa); and • the third group (MCT rats) was injected with a single intraperitoneal dose of monocrotaline at a dose of 60 mg/kg. MCT (Sigma, St Quentin Fallavier, France) was dissolved in an equal volume of HCl (1 M) and NaOH (1 M).
# In each group, some animals were treated with AOL (Sulfarlem, EG Labo Eurogenerics. Crushed tablets mixed with food, fed ad libitum) and some other animals were untreated. Eaten food was weighed every day to estimate the AOL dose administered. 10 mg/kg/day was thus administered during the 3 weeks of experiment for the second and third groups.
# Pulmonary hypertension was assessed by measuring both the mean pulmonary arterial pressure (mPAP) and right ventricle hypertrophy. To measure PAP, N, CH and MCT rats were anesthetized with pentobarbital sodium (Centravet) by intraperitoneal injection (60 mg/kg) and mPAP was measured, in closed-chest rats, through a catheter inserted in the right jugular vein, then through the right atria and the right ventricle into the pulmonary artery, and attached to a Baxter Uniflow gauge pressure transducer. Right ventricle hypertrophy was estimated by the ratio of right ventricle (RV) to left ventricle plus septum (LV+S) weight (Fulton index).
# Pulmonary arteries (PA) remodeling was assessed by measuring the percentage of the PA medial thickness from sections of paraffin-embedded lung. Lung sections were first stained with hematoxylin and eosin (VWR) according to common histological procedure.
smiles,measurement,setting,value
"COc1ccc(-c2cc(=S)ss2)cc1 [AOL, 5-(4-methoxyphenyl)-3H-1,2-dithiole-3-thione]",effect on mitochondrial respiration / oxidative phosphorylation,"[1]; AOL 5 to 80 μM, glutamate+malate, succinate(+rotenone) or all substrates, substrate, ADP and ATR states",no statistical differences in mitochondrial respiration; also recorded: statistically no differences were observed
same,Fulton index (right ventricular hypertrophy),[2]; 10 mg/kg/day in food,no effect on the Fulton index
same,reduction of pulmonary arteries diameter (PA remodeling),"[2]; CH rats, 10 mg/kg/day",30%
same,mean pulmonary arterial pressure,"[2]; MCT rats, 10 mg/kg/day in food, 3 weeks",decreased in MCT rats
same,mean pulmonary arterial pressure,[2]; normoxic (N) rats,no significant effect on the control group
"Oc1ccc(-c2cc(=S)ss2)cc1 [AOX, 5-(4-hydroxyphenyl)-3H-1,2-dithiole-3-thione]",oxidation rate under substrate state and ATR state,"[1]; AOX 20 to 100 μM, succinate (+ rotenone)",increase for concentrations up to 50 μM followed by a decrease for concentrations over 50 μM
same,concentrations with uncoupling effect on oxidative phosphorylation,[1]; succinate (+ rotenone),higher than 20 μM
